PubChem BioAssay (NCI)
Where “and” joins values, the source holds several entries; their conditions need not be identical. Equal values may be shown once.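 Results reflect a 48-hour exposure of cells in 96-well plates to compound at five concentrations. At the GI50, growth is halved. TGI denotes the concentration required for complete inhibition of growth.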

What was measured:
Experiment in all cases: NCI-60 cell line screen, 48 h
DMS 273 small cell lung = test system: DMS 273 small cell lung
M19-MEL melanoma = test system: M19-MEL melanoma
LXFL 529 NSCLC = test system: LXFL 529 NSCLC
KM20L2 colon = test system: KM20L2 colon
DLD-1 colon = test system: DLD-1 colon
DMS 114 small cell lung = test system: DMS 114 small cell lung
SNB-78 CNS = test system: SNB-78 CNS
XF 498 CNS = test system: XF 498 CNS
MDA-N = test system: MDA-N
RXF-631 renal = test system: RXF-631 renal

SMILES	TGI (DMS 273 small cell lung)	TGI (M19-MEL melanoma)	TGI (LXFL 529 NSCLC) [µM]	TGI (KM20L2 colon)	TGI (DLD-1 colon) [µM]	TGI (DMS 114 small cell lung)	TGI (SNB-78 CNS) [µM]	TGI (XF 498 CNS) [µM]	TGI (MDA-N)	other results
NN=C1/C(=C\c2ccccc2)CCC/C1=C/c1ccccc1	> 100 µM	> 100 µM	> 100	> 100 µM	> 100	75.1 µM	> 100	–	–	–
COc1ccc(N2C(=O)[C@@H]3[C@@H]4CC(C)CC[C@@H]4c4c([nH]c5ccccc45)[C@@H]3C2=O)cc1 (some centres not stated)	44.3 µM	> 100 µM	> 88	> 100 µM	> 58.4	> 59.5 µM	27.2	26	–	–
COc1ccc2c(Cl)cc(NC(=S)Nc3ccccc3)nc2c1	–	–	–	–	–	–	–	–	32.4 µM	–
COc1cccc(NC(=O)/C(CS(=O)(=O)CCC(C(C)=O)C(C)=O)=N\NC(C)(C)C)c1	> 100 µM	–	> 100	> 100 µM	> 100	> 100 µM	> 100	–	–	–
O=C1c2ccccc2C(=O)c2c1ccc1c3ccccc3n(-c3ccccc3)c21	34.4 µM	38.6 µM	30.7	53.5 µM	41.6	–	49.3	–	> 51.4 µM	TGI (RXF-631 renal): 20.7 µM
COC(=O)C(=O)C(C(=O)C(=O)Nc1cc(C)ccc1C)c1nc2ccccc2[nH]c1=O (configuration not stated)	–	–	–	–	–	–	–	–	> 100 µM	–
COc1oc(C2C/C(=C/C(C)=C/C(C)=C/C(C)=C/c3ccc([N+](=O)[O-])cc3)CO2)c(C)c(=O)c1C (configuration not stated)	–	–	–	–	–	–	–	–	23.9 µM	–
COC1=CC(=O)C2(C=C1OC)OC[C@H]1Oc3c(ccc4c3C=CC(C)(C)O4)C(=O)[C@H]12 (some centres not stated)	> 100 µM	> 100 µM	> 100	> 100 µM	> 100	94.5 µM	> 100	> 100	–	TGI (RXF-631 renal): > 100 µM
O=[N+]([O-])c1ccc(N=P(c2ccccc2)(c2ccccc2)c2ccccc2)n2nnnc12	> 100 µM	> 100 µM	> 100	> 100 µM	–	> 100 µM	–	> 100	–	–
COC(=O)CC(=O)OC1C[C@@H]2CCC3C(C)(C)CCC[C@]3(C)C23CC[C@@]1(C)C3 (some centres not stated)	–	36.3 µM	–	37.6 µM	34.2	37.9 µM	42.5	34.4	–	–
CC1=Nc2ccccc2S/C1=C1/C=NC(=NC#N)N=C1C(=O)Nc1cccc(Cl)c1	> 100 µM	> 100 µM	> 100	> 100 µM	> 100	> 100 µM	> 100	–	–	–
CC(=O)OC1(C(C)=O)CC2(c3ccccc3)OC1(c1ccccc1)c1ccccc12 (configuration not stated)	22.2 µM	80.4 µM	> 100	> 100 µM	> 100	12.5 µM	> 100	33.3	–	TGI (RXF-631 renal): > 100 µM
CC(=O)[CH-]C(=O)c1ccccc1.CC(=O)[CH-]C(=O)c1ccccc1.Cl.[O-]CCc1ccccn1.[O-]CCc1ccccn1.[Ti+4]	–	75.3 µM	38	> 100 µM	> 100	–	–	–	–	GI50 (M19-MEL melanoma): 25.4 µM; GI50 (LXFL 529 NSCLC): 15.6 µM; GI50 (KM20L2 colon): 36.2 µM; GI50 (DLD-1 colon): 30.4 µM
CN1C/C(=C\c2ccccc2)C2=NN(C(N)=S)[C@H](c3ccccc3)[C@@H]2C1	> 100 µM	> 100 µM	> 100	> 100 µM	> 100	–	> 100	> 100	–	–
CN(N=O)c1ccc(/C=C/c2ccnc3ccccc23)cc1	–	–	–	–	–	–	–	–	> 100 µM	–
CSCSCC(CO)NC(=O)/C=C/c1c(C)[nH]c(=O)[nH]c1=O (configuration not stated)	> 100 µM	> 100 µM	> 100	> 100 µM	> 100	> 100 µM	> 100	–	–	–
O=C(CC1(O)C(=O)Nc2ccccc21)c1cccc(O)c1 (configuration not stated)	> 100 µM	> 100 µM	> 100	> 100 µM	> 100	> 100 µM	> 100	> 100	–	TGI (RXF-631 renal): > 100 µM
O=C1N(c2ccc(Cl)cc2)C(=O)C2(SC=NN2Cc2ccccc2)N1c1ccc(Cl)cc1 (configuration not stated)	–	> 100 µM	> 100	> 100 µM	> 100	> 100 µM	> 100	94.4	–	TGI (RXF-631 renal): > 100 µM
COc1cc2c(c3oc4c(O)cccc4c(=O)c13)CC(C(C)(O)CCl)O2 (configuration not stated)	–	–	–	–	–	–	–	–	2.45 µM	–
C=C1C(C)C2C(Cc3ccccc3)NC(=O)C23C(OC(C)=O)C=CC(C)(O)C(=O)C(C)C/C=C/C3C1O (configuration not stated)	73.9 µM and > 500 µM	93.4 µM and > 500 µM	96.4	99.2 µM and > 500 µM	–	65.6 µM and > 500 µM	1.55	28.5	21.4 µM and > 162 µM	GI50 (DMS 273 small cell lung): 0.05 µM; GI50 (M19-MEL melanoma): 57.3 µM; GI50 (KM20L2 colon): 0.275 µM; GI50 (DMS 114 small cell lung): 11.1 µM; GI50 (MDA-N): 1.75 µM
COc1ccc2c(c1O)[C@@]13CCCC=C1[C@@H](C2)N(C)CC3	–	–	–	–	–	–	–	–	> 100 µM	–
CCOC(=O)Nc1cc2c(c(N)n1)N=C(c1ccc(Cl)cc1Cl)CN2	–	–	–	–	–	–	–	–	18.6 µM	–
CCCC(O)c1ccc2[nH]c3c(C)cc([N+](=O)[O-])c(C)c3c2c1 (configuration not stated)	> 100 µM	> 100 µM	–	–	> 100	> 100 µM	> 100	> 100	–	–
NP1(Oc2ccc(F)cc2)=NP(N)(Oc2ccc(F)cc2)=NP(Oc2ccc(F)cc2)(Oc2ccc(F)cc2)=N1 (configuration not stated)	–	–	–	–	–	–	–	–	19 µM	–
